Source: patent publication US8916594B2, “5-membered ring heteroaromatic derivatives having NPY Y5 receptor antagonistic activity” (Shionogi & Co., Ltd., priority 2011, dated 2014)

biological target: mouse NPY Y5 receptor (Mus musculus (Mouse), UniProt O70342); assay: Affinity for mouse NPY Y5 receptor ([125I] peptide YY binding, CHO cell membranes); settings: membranes from CHO cells expressing mouse NPY Y5 receptor, [125I] peptide YY 60 pM, 25° C., 2 hours; read-out: 50% inhibitory concentration against the specific peptide YY binding (IC50 value)
Description: cDNA sequence encoding a mouse NPY Y5 receptor (Biochim. Biophys. Acta 1328:83-89, 1997) was cloned in a vector (pME18S, Takebe et al. Mol. Cell. Biol. 8, 8957). The obtained expression vector was transfected into CHO cells as a host by using Lipofect AMINE reagent (Trademark, Gico BRL Co., Ltd.) according to the instruction manual. The cells that stably express NPY Y5 receptor were obtained.
(§1) The membranes prepared from the CHO cells expressing NPY Y5 receptor, the compound of this invention and 30,000 cpm [^125I] peptide YY (60 pM of final concentration: Healthcare) were incubated in the assay buffer (20 mM HEPES-Hanks buffer containing 0.1% bovine serum albumin, pH 7.4) at 25° C. for 2 hours, and then the membrane was filtered from the mixture through a glass filter (GF/C) presoaked with 1% polyethyleneimine. After washing with 50 mM Tris-HCl buffer (pH 7.4), radioactivity retained on the filters was quantified with a gamma counter. Nonspecific binding was defined as the amount of radioactivity bound to the membranes after incubation in the presence of 200 nM of peptide YY. The 50% inhibitory concentration of the test compound against the specific peptide YY binding (IC50 value) was calculated (Inui, A. et al. Endocrinology 131, 2090-2096 (1992)).

Chain of mouse NPY Y5 receptor (O70342 whole entry): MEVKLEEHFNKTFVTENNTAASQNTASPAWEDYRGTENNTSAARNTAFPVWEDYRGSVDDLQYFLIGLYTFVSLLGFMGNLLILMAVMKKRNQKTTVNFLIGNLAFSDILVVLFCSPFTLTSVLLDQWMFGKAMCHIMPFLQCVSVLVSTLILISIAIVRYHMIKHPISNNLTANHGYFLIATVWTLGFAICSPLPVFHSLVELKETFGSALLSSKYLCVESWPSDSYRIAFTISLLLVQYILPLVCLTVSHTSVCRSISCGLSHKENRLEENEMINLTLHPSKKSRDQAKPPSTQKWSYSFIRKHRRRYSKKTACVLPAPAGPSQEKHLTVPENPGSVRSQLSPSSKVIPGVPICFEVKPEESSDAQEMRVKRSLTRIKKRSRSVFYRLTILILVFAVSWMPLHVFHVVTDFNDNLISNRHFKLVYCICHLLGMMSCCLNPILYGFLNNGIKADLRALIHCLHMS

Structure (SMILES) | IC50
CC(C)(c1ccccc1)c1noc(N[C@H]2CC[C@H](CNS(=O)(=O)C(C)(C)C)CC2)n1 [Compound I-130] | 700 pM
CC(C)S(=O)(=O)NC[C@H]1CC[C@H](Nc2nc(C(F)(F)F)no2)CC1 [Compound I-145] | 3100 pM
CS(=O)(=O)NC[C@H]1CC[C@H](Nc2nc(-c3cccc(Cl)c3)no2)CC1 [Compound I-081] | 900 pM
CCS(=O)(=O)NC[C@H]1CC[C@H](Nc2nc(-c3cc(F)cc(F)c3)no2)CC1 [Compound I-053] | 230 pM
CC(C)(C)S(=O)(=O)NC[C@H]1CC[C@H](Nc2nc(-c3ccc(F)cn3)no2)CC1 [Compound I-100] | 900 pM
CCS(=O)(=O)NC[C@H]1CC[C@H](Nc2nc(-c3ccc(F)cc3)no2)CC1 [Compound I-006] | 320 pM
CCS(=O)(=O)NC[C@H]1CC[C@H](Nc2nc(-c3ccc(F)cc3F)no2)CC1 [Compound I-034] | 180 pM
CC(C)S(=O)(=O)NC[C@H]1CC[C@H](Nc2nc(-c3ccccc3)no2)CC1 [Compound I-024] | 130 pM
CC(C)S(=O)(=O)NC[C@H]1CC[C@H](Nc2nc(C(F)(F)F)co2)CC1 [Compound I-150] | 3600 pM
CC(C)(C)S(=O)(=O)NC[C@H]1CC[C@H](Nc2nc(C3(F)CC(F)(F)C3)no2)CC1 [Compound I-161] | 1900 pM
CC1(c2noc(N[C@H]3CC[C@H](CNS(=O)(=O)C(C)(C)C)CC3)n2)CC(F)(F)C1 [Compound I-143] | 800 pM
CC(C)S(=O)(=O)NC[C@H]1CC[C@H](Nc2nc(-c3cccc(F)c3)no2)CC1 [Compound I-018] | 200 pM
CCS(=O)(=O)NC[C@H]1CC[C@H](Nc2nc(C3(F)CCCC3)no2)CC1 [Compound I-138] | 500 pM
CC(C)(C)S(=O)(=O)NC[C@H]1CC[C@H](Nc2nc(C(F)(F)F)co2)CC1 [Compound I-146] | 4210 pM
CC(C)(C)S(=O)(=O)NC[C@H]1CC[C@H](Nc2nc(C(F)(F)F)no2)CC1 [Compound I-136] | 1500 pM
CC(C)S(=O)(=O)NC[C@H]1CC[C@H](Nc2nc(C(F)(F)C(F)(F)F)no2)CC1 [Compound I-152] | 650 pM
CCS(=O)(=O)NC[C@H]1CC[C@H](Nc2nc(C(F)(F)C(F)(F)F)no2)CC1 [Compound I-153] | 1670 pM
CCS(=O)(=O)NC[C@H]1CC[C@H](Nc2nc(-c3cccc(F)c3)no2)CC1 [Compound I-017] | 220 pM
CS(=O)(=O)NC[C@H]1CC[C@H](Nc2nc(-c3cccc(F)c3)no2)CC1 [Compound I-027] | 860 pM
CC(C)S(=O)(=O)NC[C@H]1CC[C@H](Nc2nc(-c3ccc(F)cn3)no2)CC1 [Compound I-099] | 800 pM
CCS(=O)(=O)NC[C@H]1CC[C@H](Nc2nc(-c3ccccc3)no2)CC1 [Compound I-011] | 340 pM
CCS(=O)(=O)NC[C@H]1CC[C@H](Nc2nc(-c3ccc(F)c(F)c3)no2)CC1 [Compound I-029] | 220 pM
CS(=O)(=O)NC[C@H]1CC[C@H](Nc2nc(-c3ccc(F)cc3)no2)CC1 [Compound I-023] | 1400 pM
CC(C)S(=O)(=O)NC[C@H]1CC[C@H](Nc2nc(C3(C)CC(F)(F)C3)no2)CC1 [Compound I-147] | 610 pM
CC(C)(C)S(=O)(=O)NC[C@H]1CC[C@H](Nc2nc(C(F)(F)C(F)(F)F)no2)CC1 [Compound I-149] | 1040 pM

biological target: T1, human NPY Y5 receptor (Homo sapiens (Human), UniProt Q15761); assay: Affinity for human NPY Y5 receptor ([125I] peptide YY binding, CHO cell membranes); settings: membranes from CHO cells expressing human NPY Y5 receptor, [125I] peptide YY 60 pM, 25° C., 2 hours; read-out: 50% inhibitory concentration against the specific peptide YY binding (IC50 value)
Description: cDNA sequence encoding a human NPY Y5 receptor (WO96/16542) was cloned in a vector (pME18S, Takebe et al. Mol. Cell. Biol. 8, 466-472). The obtained expression vector was transfected into CHO cells as a host by using Lipofect AMINE reagent (Trademark, Inbitrogen) according to the instruction manual. The cells that stably express human NPY Y5 receptor were obtained.
as §1, with “expressing human” for “expressing”, “[…]” for “[^125I]”, “glassfilter” for “glass filter”

T1 sequence (Q15761 whole entry): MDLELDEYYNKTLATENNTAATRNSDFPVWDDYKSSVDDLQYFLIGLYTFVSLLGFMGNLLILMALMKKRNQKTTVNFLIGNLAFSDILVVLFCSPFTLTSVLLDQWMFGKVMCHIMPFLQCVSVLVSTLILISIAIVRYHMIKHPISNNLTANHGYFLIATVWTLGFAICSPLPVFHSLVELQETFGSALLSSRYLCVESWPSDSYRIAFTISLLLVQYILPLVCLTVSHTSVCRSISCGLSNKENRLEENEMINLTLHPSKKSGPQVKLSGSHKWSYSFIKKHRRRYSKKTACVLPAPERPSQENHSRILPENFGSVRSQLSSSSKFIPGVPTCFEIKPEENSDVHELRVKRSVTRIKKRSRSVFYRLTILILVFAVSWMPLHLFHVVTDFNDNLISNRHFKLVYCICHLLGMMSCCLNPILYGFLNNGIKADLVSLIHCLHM

Structure (SMILES) | IC50
CCS(=O)(=O)NC[C@H]1CC[C@H](Nc2nc(-c3cccc(F)c3)no2)CC1 [Compound I-017] | 810 pM
CCS(=O)(=O)NC[C@H]1CC[C@H](Nc2nc(-c3ccc(F)c(F)c3)no2)CC1 [Compound I-029] | 860 pM

biological target: T1, human NPY Y5 receptor; assay: Inhibitory effect on cAMP production in CHO cells; format: cell-based; settings: CHO cells expressing human NPY Y5 receptor, 50 nM NPY, 10 μM forskolin; read-out: 50% inhibitory concentration (IC50 value) against the NPY activity on forskolin stimulated cAMP production
Method: CHO cells expressing human NPY Y5 receptor were incubated in the presence of 2.5 mM isobutylmethylxanthine (SIGMA) at 37° C. for 20 min. After the incubation the compound of the present invention was added, and then the mixture was incubated for 5 min. Next, 50 nM NPY and 10 μM forskolin (SIGMA) were added, and the mixture was incubated for 30 min. After termination of the reaction by adding 1N HCl, the amount of cAMP in the supernatant was determined with an EIA kit (Amersham LIFE SCIENCE). The inhibitory activity of NPY against forskolin stimulated cAMP production was expressed as 100% and the 50% inhibitory concentration (IC50 value) of the compound of the present invention against the NPY activity was calculated.

Structure (SMILES) | IC50
CC(C)S(=O)(=O)NC[C@H]1CC[C@H](Nc2nc(-c3cccc(F)c3)no2)CC1 [Compound I-018] | 2100 pM
CCS(=O)(=O)NC[C@H]1CC[C@H](Nc2nc(-c3cccc(F)c3)no2)CC1 [Compound I-017] | 3300 pM
CCS(=O)(=O)NC[C@H]1CC[C@H](Nc2nc(-c3ccc(F)c(F)c3)no2)CC1 [Compound I-029] | 1300 pM
